Experimental data: patent publication US20250339531A1, “DUX4 POLYPEPTIDES AND NUCLEIC ACIDS FOR TREATING INFLAMMATORY AND AUTOIMMUNE CONDITIONS” (Fred Hutchinson Cancer Center, priority 2021, published 2025)
“Also recorded” adds a separate entry of the source.

Columns and labels:
H3.X/Y = test: Immunoblot of DUX4 target H3.X/Y proteins; assay type: cell-based, human; conditions: MB135 cells, continuous or pulsed protocol
Experimental: Protein samples were harvested in RIPA buffer [150 mM NaCl, 1% NP-40, 0.5% Na-deocycholate, 1% SDS, 25 mM Tris-HCl pH7.4] supplemented with protease and phosphatase inhibitor tablets (Pierce), followed by sonication in Diagenode Bioruptor. Lysate was cleared by centrifugation at 16000×g and quantified using a Pierce BCA assay (Thermo Fisher Scientific). Samples were run on NuPAGE precast polyacrylamide gels (Invitrogen) and transferred to PVDF membrane. Membranes were blocked in PBS containing 0.1% Tween-20 and 5% non-fat dry milk before overnight incubation at 4° C. with primary antibodies (see resource table for a list of antibodies used in this study). Membranes were incubated with horseradish peroxidase-conjugated secondary antibodies for 1 hour at room temperature and SuperSignal chemiluminescent substrate (Thermo Scientific) was used for detection on film with a Mini-medical 90 processor. Membranes were stripped with Restore Western Blot Stripping Buffer (Pierce).

[1] = test system: HLA-A, HLA-B, HLA-C, PSMB8, PSMB9, PSMB10 mRNA nuclear export; test: Subcellular fractionation of nuclear and cytoplasmic mRNAs and proteins; assay type: cell-based, human; conditions: DUX4 pulse, IFNG, 44 hours, data not shown
Experimental: MB135iDUX4 myoblasts were pulsed with doxycycline for 4 hours, incubated for 24 hours, supplemented with 50 ng/mL IFNG for 16 hours, and harvested at a terminal time point of 44 hours. Samples divided for whole-cell lysate (WCL) and subcellular fractionation were suspended in 300 μL ice-cold Cyto-lysis buffer (10 mM Tris pH 7.4, 10 mM NaCl, 0.2% NP-40, 1 mM DTT in nuclease free water). Subcellular fractionation samples were centrifuged at 650 RCF to pellet nuclei while cytoplasmic lysate remained in the supernatant. WCL, cytoplasmic, nuclear RNA and protein were harvested for RT-qPCR and immunoblotting, respectively.

[2] = test system: in vitro translated STAT1; test: In vitro translation and anti-FLAG immunoprecipitation; assay type: binding; conditions: rabbit reticulocyte lysate proteins, ± JAK1 kinase; listed as DUX4-CTD
Experimental: In vitro translated proteins were prepared using the TnT Quick Coupled Transcription Translation System (Promega, L2080) for the SP6 promoter on the pCS2-3×MYC-STAT1, pCS2-3×MYC-STAT1-S727E, pCS2-3×FLAG-DUX4aa154-424, and pCS2-3×FLAG-DUXB plasmids. To phosphorylate the 3×MYC-STAT1 and 3×MYC-STAT1-S727E proteins at Y701, 20 μL of the TnT reaction was mixed with 8 μL of 5× Kinase Buffer A (ThermoFisher, Cat #PV3189), 4 uL 10 mM ATP (ThermoFisher, Cat #PV3227), 0.4 ug recombinant JAK1 kinase (ThermoFisher, Cat #PV4774), and then nuclease-free ddH2O to a final volume of 40 μL and incubated for 1 hour at 30° C. The same procedure was used for treatment of 3×FLAG-DUX4-CTD with JAK1 kinase. For IPs, the in vitro translated proteins were mixed and incubated for 15 minutes in a 37° C. water bath. 0.3 mL of ice-cold in vitro IP buffer [20 mM Tris-HCl pH 7.5, 137 mM NaCl, 1 mM EDTA, 0.1% Tween20, 5% glycerol, adjusted to pH 7.4] was added to each sample and then 50 μL of Dynabeads Protein G bound to mouse IgG1 anti-FLAG [M2] (F3165) and incubated for 3 hours at 4° C. with gentle rotation. After immunoprecipitation of FLAG-tagged constructs, each sample was washed 3 times with 1 mL of ice-cold in vitro IP buffer in a 4° C. room. […]

Pol-II = test: CUT&Tag of Pol-II occupancy; assay type: cell-based, human; conditions: MB135-iDUX4-CTD cells, IFNG ± doxycycline
Experimental: CUT&Tag was performed as previously described (Kaya-Okur et al., 2019) with the following modifications: MB135-iDUX4-CTD myoblasts were plated and allowed to grow to 70-80% confluence. Cells were left untreated, treated with 200 ng/ml IFNG for 16 hr, or pre-treated with 1 μg/mL doxycycline for 4 hr then had IFNG added directly to cell media for an additional 16 hr. Fresh cells were harvested and washed in PBS, crosslinked with 0.1% formaldehyde for 90 seconds, then counted and 1.25e6 cells were aliquoted per reaction tube. Drosophila S2 cells were spiked-in at a genomic ratio of 1:10. Nuclei were prepared from cells in Buffer NE1 (20 mM HEPES-KOH PH7.9, 10 mM KCl, 0.1% Triton X-100, 20% glycerol, 0.5 mM spermidine, Pierce Protease Inhibitors EDTA-free [PIA32955]) on ice for 10 min and then bound to concanavalin A-coated beads for 10 min. […]
CUT&Tag data were aligned to the GRCh38 patch 13 human genome e following the Benchtop CUT&Tag v3 protocol (Kaya-Okur et al., 2019). Subsequent to alignment we calculated 1× genome coverage normalization with read centering and read extension using deepTools' bamCoverage (Ramírez, 2016) then mapped the resulting coverage tracks to regions of interest using bedtools' map function (Aaron R. Quinlan, 2010). […]

Substance	induction of DUX4 target H3.X/Y proteins (H3.X/Y)	induction of DUX4 target H3.X/Y proteins (H3.X/Y; listed as full-length DUX4)	mRNA nuclear export and protein localization to the cytoplasm [1]	interaction with in vitro translated STAT1 [2]	Pol-II recruitment to ISGs (Pol-II)
DUX4: human DUX4 protein SEQ ID NO:3 expressed from doxycycline inducible codon altered transgene SEQ ID NO:2	activates a DUX4-regulated gene H3.X/Y in both protocols	are induced by the full-length DUX4	did not disrupt	–	–
longCTD: 3×FLAG tag and nls in frame with carboxyterminal 271 amino acids of DUX4 (aa154-424), SEQ ID NOS: 8-9	–	–	–	did not interact with in vitro translated STAT1; also recorded: does not co-immunoprecipitate with in vitro translated/phosphorylated STAT1	blocked Pol-II recruitment to ISGs without affecting occupancy at other genes; also recorded: blocks Pol-II recruitment
